SMILES strings stand for the structures.

Sequence of fully phosphorylated, active Mouse ERK2 protein (P63085 whole entry): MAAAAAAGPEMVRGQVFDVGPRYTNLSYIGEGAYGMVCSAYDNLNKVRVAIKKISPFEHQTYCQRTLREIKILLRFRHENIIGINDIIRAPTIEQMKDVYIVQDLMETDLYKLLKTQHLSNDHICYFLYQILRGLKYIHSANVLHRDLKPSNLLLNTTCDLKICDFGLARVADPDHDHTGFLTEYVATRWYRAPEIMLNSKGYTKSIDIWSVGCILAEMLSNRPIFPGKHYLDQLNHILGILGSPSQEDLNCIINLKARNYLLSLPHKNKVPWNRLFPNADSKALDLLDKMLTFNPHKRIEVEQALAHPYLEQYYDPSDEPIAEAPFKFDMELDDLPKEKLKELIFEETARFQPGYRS

The assay concerns the target fully phosphorylated, active Mouse ERK2 protein (Mus musculus (Mouse), UniProt P63085). Put plainly: Active ERK2 (aERK) IMAP assay. It is filed as biochemical. Particulars: IMAP fluorescence polarization; 30 μM ATP; 30 minute pre-incubation.
On to `Cc1cc(-c2n[nH]c3ccc(C(=O)NN4CCCC(CO)(Oc5ccc(F)cc5)C4)cc23)ccn1` (stereo not drawn) [compound 148, N-[3-(4-fluorophenoxy)-3-(hydroxymethyl)-1-piperidinyl]-3-(2-methyl-4-pyridinyl)-1H-indazole-5-carboxamide], for which the IC50 (as a rule, the concentration needed to halve the response being measured) was determined as 445 nM.

For `COCC1(Cc2ccccc2F)CCCN(NC(=O)c2ccc3[nH]nc(-c4ccnc(C)c4)c3c2)C1` (stereo not drawn) [compound 149, N-[3-[(2-fluorophenyl)methyl]-3-(methoxymethyl)-1-piperidinyl]-3-(2-methyl-4-pyridinyl)-1H-indazole-5-carboxamide], the IC50 is 937 nM.

Turning to `Cc1cc(-c2n[nH]c3ccc(C(=O)NN4CCC(CO)(Cc5ccccc5F)C4)cc23)ccn1` (stereo not drawn) [compound 150, N-[3-[(2-fluorophenyl)methyl]-3-(hydroxymethyl)-1-pyrrolidinyl]-3-(2-methyl-4-pyridinyl)-1H-indazole-5-carboxamide], the half-maximal inhibitory concentration (IC50) is 32.2 nM.

As to `Cc1cc(-c2n[nH]c3ccc(C(=O)NN4CCCC(CO)(Cc5ccccc5F)C4)cc23)ccn1` (stereo not drawn) [compound 151, N-[3-[(2-fluorophenyl)methyl]-3-(hydroxymethyl)-1-piperidinyl]-3-(2-methyl-4-pyridinyl)-1H-indazole-5-carboxamide], the IC50 was determined as 193 nM.

`Cc1cc(-c2n[nH]c3ccc(C(=O)NC4CCCC(N)(Cc5ccccc5F)C4)cc23)ccn1` (stereo not drawn) [compound 152, N-[3-amino-3-[(2-fluorophenyl)methyl]cyclohexyl]-3-(2-methyl-4-pyridinyl)-1H-indazole-5-carboxamide] came in with a half-inhibitory concentration (IC50) of 514 nM.

`Cc1cc(-c2n[nH]c3ccc(C(=O)NC4CCCC(Cc5ccccc5F)(NC=O)C4)cc23)ccn1` (stereo not drawn) [compound 153, N-[3-[(2-fluorophenyl)methyl]-3-(formylamino)cyclohexyl]-3-(2-methyl-4-pyridinyl)-1H-indazole-5-carboxamide] had an IC50 of 162 nM.

The values are drawn from US9351965B2, “Indazole derivatives useful as ERK inhibitors” (Merck Sharp & Dohme Corp., priority 2010, dated 2016).
